The text below walks through data of article PMC7982521, “Studies on the Changes of Pharmacokinetics Behaviors of Phytochemicals and the Influence on Endogenous Metabolites After the Combination of Radix Bupleuri and Radix Paeoniae Alba Based on Multi-Component Pharmacokinetics and Metabolomics” (Frontiers in Pharmacology, 2021).

Where two headings read alike, the source gives them in different places.

As a reminder, the Cmax is the highest concentration seen after dosing. For orientation: AUC(0-inf) means total exposure, with the tail of the curve extrapolated. Broadly, the half-life is how long it takes for the measured level to halve.

The nature of the data set: Multi-component pharmacokinetics in rat plasma after oral administration of RB, RPA or RB-RPA extracts (UPLC-HRMS, non-compartmental analysis). The data set is classed as in vivo, Sprague-Dawley rats. Particulars: for AUC0-t / AUC0-∞ / Cmax / t1/2 / tmax / AUC(0-inf) / half-life / Cmax, second value / tmax, second value: rat plasma, n = 7; for AUC0-t / AUC0-∞ / Cmax / t1/2 / tmax / AUC(0-inf) / half-life: mean ± SD; for change of AUC0-∞ after combination: oral RB-RPA group vs single herbal group (RB or RPA). The procedure: (Beijing, China, No. SCXK2018-0011). […] All rats were free to access the water and food until 12 h before the experiment. The animal study was reviewed and approved by the Experimental Animal Ethical Committee of Modern Research Center for Traditional Chinese Medicine, Shanxi University (animal ethic approval number: SXULL2018018), and all experimental procedures were carried out in accordance with the NIH Guide for the Care and Use of Laboratory Animals. After one week of adaptation, twenty-one rats were divided into three groups randomly, with seven rats in each group: 1) RPA group, were oral administration of Radix Paeoniae Alba extract (45 g-herb/kg); 2) RB group, were oral administration of Radix Bupleuri extract (45 g-herb/kg); 3) RB-RPA group, were oral administration of powder mixture of Radix Bupleuri and Radix Paeoniae Alba extracts (containing 45 g-herb/kg Radix Bupleuri and 45 g-herb/kg Radix Paeoniae Alba). […] Each group received intragastric administration with a volume of 10 ml/kg (rat body weight). […] All rats were free to access the water during the experiment. The blood samples at each time point were collected from seven rats. The blood samples were centrifuged at 4,000 rpm for 10 min and frozen at -80°C until analysis. Using a Thermo-Fisher Dionex UltiMate 3000 UHPLC system coupled with a Q Exactive Orbitrap-MS (Thermo-Fisher, United States) and Xcalibur workstation (Thermo-Fisher Scientific Inc.,Waltham, MA, United States) to acquire UPLC-HRMS raw data. Chromatographic separation of herb extracts and plasma samples was performed on an Acquity UPLC HSS T3 column (2.1 mm × 100 mm, 1.8 μm) maintained at 37°C. The flow rate was 0.2 ml/min and the injection volume was 5 μL. […] Mass spectrometry detection conditions were set as follows: the MS data were acquired under positive and negative ionization modes via heated electrospray ionization (HESI) source. […] The Q Exactive Orbitrap-MS has a fast positive and negative ion switching function, which could switch between positive-negative ion modes during the analysis of the same sample. So, we applied the method of switching ion modes in the detection process to quantify all analytes better. […] UPLC/MS/MS calibration and quantitation data were processed with Xcalibur workstation (Thermo-Fisher Scientific Inc., Waltham, MA, United States). For the eight components with standard reference, calculating their concentrations from the standard curves. For the other 30 components without standard reference, their concentrations were analyzed following the regression equations of homologous compounds ([Qiao et al., 2012]): paeoniflorin for P1 and M1 to M3; methylgallate for M4 to M10; saikosaponin […] and […]; saikosaponin […]; saikosaponin […]; saikosaponin B2 for P11 and M25 to […].

[1] abbreviates: oral RB single extract 45 g-herb/kg.
The mark [2] stands for this setting: oral RB-RPA mixed extracts (45 g-herb/kg RB + 45 g-herb/kg RPA).
The mark [3] stands for this setting: oral administration of mixed extracts RB-RPA.
[4] abbreviates: oral administration of single extract RPA.
[5] abbreviates: male, Sprague-Dawley, rat, plasma, po, 45 g/kg, oral administration of mixed extracts RB-RPA.
The mark [6] stands for this setting: male, Sprague-Dawley, rat, plasma, po, 45 g/kg, oral administration of mixed extracts RB-RPA, read-out: AUC0-t.
[7] abbreviates: male, Sprague-Dawley, rat, plasma, po, 45 g/kg, oral administration of mixed extracts RB-RPA, read-out: Cmax.
The mark [8] stands for this setting: male, Sprague-Dawley, rat, plasma, po, 45 g/kg, oral administration of mixed extracts RB-RPA, read-out: tmax.
The mark [9] stands for this setting: male, Sprague-Dawley, rat, plasma, po, 45 g/kg, oral administration of single extract RPA.
[10] abbreviates: male, Sprague-Dawley, rat, plasma, po, 45 g/kg, oral administration of single extract RPA, read-out: AUC0-t.
Setting [11] is: male, Sprague-Dawley, rat, plasma, po, 45 g/kg, oral administration of single extract RPA, read-out: Cmax.

In the case of `CC(=O)OC[C@H]1O[C@@H](O[C@H]2[C@@H](O)[C@@H](C)O[C@@H](O[C@H]3CC[C@@]4(C)[C@@H](CC[C@]5(C)[C@@H]4C=CC46OCC7(CCC(C)(C)C[C@H]74)[C@@H](O)C[C@]65C)[C@]3(C)CO)[C@@H]2O)[C@H](O)[C@@H](O)[C@@H]1O` (stereo partly shown) [Acetyl-saikosaponin A], under setting [1], the AUC0-t turned out to be 51.16 ± 11.83 ng·h/mL, the “AUC0-∞” value came to 57.19 ± 10.74 ng·h/mL, the Cmax is 29.39 ± 11.24 ng/mL and the t1/2 was 3.50 ± 0.74 h. Under setting [1], this compound registered a tmax of 0.46 ± 0.19 h. In addition, under setting [2], the AUC0-t was found to be 62.08 ± 16.91 ng·h/mL, the “AUC0-∞” value was 67.17 ± 16.28 ng·h/mL, the Cmax was 27.55 ± 9.89 ng/mL and the t1/2 was 4.38 ± 1.27 h. The tmax under setting [2] was 0.54 ± 0.19 h.

Take `CC(=O)OC[C@H]1O[C@@H](O[C@H]2[C@@H](O)[C@@H](C)O[C@@H](O[C@H]3CC[C@@]4(C)[C@@H](CC[C@]5(C)[C@@H]4C=CC46OCC7(CCC(C)(C)C[C@H]74)[C@H](O)C[C@]65C)[C@]3(C)CO)[C@@H]2O)[C@H](O)[C@@H](O)[C@@H]1O` (stereo partly shown) [Acetyl-saikosaponin D]: under setting [1], the AUC0-t was found to be 23.58 ± 6.77 ng·h/mL, the “AUC0-∞” value came to 25.54 ± 7.23 ng·h/mL, the Cmax came to 19.20 ± 6.70 ng/mL and the t1/2 amounted to 2.68 ± 0.71 h. Also, the tmax under setting [1] stood at 0.50 ± 0.27 h. Also, under setting [2], the AUC0-t came to 38.05 ± 21.32 ng·h/mL, the “AUC0-∞” value is 43.25 ± 27.08 ng·h/mL, the highest concentration (Cmax) came to 20.31 ± 12.42 ng/mL and the t1/2 amounted to 4.39 ± 1.55 h. In addition, the tmax under setting [2] amounted to 0.50 ± 0.27 h.

Consider `C[C@]12C[C@@H](O)[C@@H]3C[C@@]1(O[C@@H]1O[C@H](CO)[C@@H](O)[C@H](O)[C@H]1O)[C@@]3(COC(=O)c1ccccc1)C(=O)O2` [Albiflorin], for which the Cmax under setting [2] was 365.94 ± 41.75 ng/mL. Under “oral RPA single extract 45 g-herb/kg”, this compound yielded a Cmax of 271.50 ± 63.29 ng/mL. Besides, under setting [3], the AUC0-t came out at 1834.06 ± 191.89 ng·h/mL, the “AUC0-∞” value stood at 1849.80 ± 396.92 ng·h/mL, the Cmax worked out at 365.94 ± 41.75 ng/mL and the t1/2 is 3.46 ± 0.56 h. The tmax under setting [3] came out at 0.71 ± 0.25 h. In addition, under setting [4], the AUC0-t amounted to 1202.69 ± 302.31 ng·h/mL, the “AUC0-∞” value amounted to 1210.33 ± 303.04 ng·h/mL, the Cmax was 271.50 ± 63.29 ng/mL and the t1/2 was 3.19 ± 0.58 h. This compound also showed a tmax under setting [4] of 1.25 ± 0.89 h. In addition, where the note is “rat”, the “change of AUC0-∞ after combination” value was “significantly increased”.

For the compound `C[C@@]12C[C@@]3(O)O[C@@H](O1)[C@]1(CO)[C@H]3C[C@@]12O[C@@H]1O[C@H](CO)[C@@H](O)[C@H](O)[C@H]1O` [Desbenzoylpaeoniflorin], under setting [3], the AUC0-t came out at 27.39 ± 15.84 ng·h/mL, the “AUC0-∞” value stood at 28.66 ± 16.13 ng·h/mL, the Cmax came to 10.12 ± 5.32 ng/mL and the t1/2 was determined as 2.17 ± 0.95 h. The compound also displayed a tmax under setting [3] of 0.58 ± 0.13 h. Also, under setting [4], the AUC0-t was found to be 18.66 ± 9.99 ng·h/mL, the “AUC0-∞” value was found to be 20.34 ± 9.44 ng·h/mL, the Cmax amounted to 8.76 ± 4.90 ng/mL and the t1/2 came out at 2.72 ± 1.32 h. In addition, under setting [4], the tmax was determined as 0.75 ± 0.16 h.

For the compound `COC(=O)c1cc(O)c(O)c(O)c1` [Methyl gallate], the AUC(0-inf) was found to be 213 ± 40.5 ng·h/mL under setting [5] and 144 ± 59.1 ng·h/mL under setting [9]. Besides, the half-life is 4.77 ± 3.32 h under setting [5] and 4.11 ± 2.31 h under setting [9]. For the same compound, the AUC0-t under setting [6] is 187 ± 42.4 ng·h/mL and the AUC0-t under setting [10] came to 141 ± 61.3 ng·h/mL. The Cmax came out at 57.6 ± 7.34 ng/mL under setting [7] and 48.6 ± 9.47 ng/mL under setting [11]. The tmax is 0.5 ± 0.16 h under setting [8] and 0.58 ± 0.13 h (male, Sprague-Dawley, rat, plasma, po, 45 g/kg, oral administration of single extract RPA, read-out: tmax). Also, the “change of AUC0-∞ after combination” value (rat) is listed as “significantly increased”.

As for `C[C@@]12C[C@@]3(O)O[C@@H](O1)[C@]1(COC(=O)c4ccccc4)[C@H]3C[C@@]12O[C@@H]1O[C@H](CO)[C@@H](O)[C@H](O)[C@H]1O` [Paeoniflorin], the Cmax is, setting by setting: (male, Sprague-Dawley, rat, plasma, po, 45 g-herb/kg, oral RPA single extract 45 g-herb/kg, read-out: Cmax) 1780 ± 513 ng/mL; under setting [7], 2930 ± 386 ng/mL; under setting [11], 1780 ± 513 ng/mL; (male, Sprague-Dawley, rat, plasma, po, oral RB-RPA mixed extracts (45 g-herb/kg RB + 45 g-herb/kg RPA), read-out: Cmax) 2930 ± 386 ng/mL. For the same compound, the AUC(0-inf) by setting is: under setting [5], 7170 ± 1140 ng·h/mL; under setting [9], 4260 ± 873 ng·h/mL. For the same compound, under setting [5], the half-life was 1.96 ± 0.37 h. The AUC0-t by setting is: under setting [6], 7170 ± 1140 ng·h/mL; under setting [10], 4260 ± 869 ng·h/mL. In addition, the tmax under setting [8] is 0.33 ± 0.13 h. This compound also showed a t1/2 under setting [4] of 2.71 ± 0.72 h. In addition, the “change of AUC0-∞ after combination” value (rat) was “significantly increased”.

In the case of `CC1C2OC3(C)CC(=O)C1CC3(O)O2` (stereo not shown) [Paeonimetabolin I], under setting [3], the AUC0-t stood at 4248.67 ± 1970.10 ng·h/mL, the “AUC0-∞” value was determined as 4806.68 ± 2129.42 ng·h/mL, the Cmax stood at 575.13 ± 257.81 ng/mL and the t1/2 came to 7.11 ± 2.01 h. This compound also returned a tmax under setting [3] of 0.83 ± 0.13 h. Under setting [4], the AUC0-t stood at 4864.64 ± 2525.32 ng·h/mL, the “AUC0-∞” value turned out to be 5467.27 ± 2837.33 ng·h/mL, the Cmax stood at 658.61 ± 349.75 ng/mL and the t1/2 was 7.39 ± 0.45 h. In addition, the tmax under setting [4] was 0.75 ± 0.00 h.

`C[C@H]1O[C@@H](O[C@H]2CC[C@@]3(C)[C@@H](CC[C@]4(C)[C@@H]3C=CC3=C5CC(C)(C)CC[C@]5(CO)[C@H](O)C[C@]34C)[C@]2(C)CO)[C@H](O)[C@@H](O)[C@H]1O` [Prosaikogenin D]: under setting [1], the AUC0-t was 27.23 ± 10.38 ng·h/mL, the “AUC0-∞” value came out at 31.50 ± 8.81 ng·h/mL, the Cmax amounted to 7.47 ± 3.88 ng/mL and the t1/2 stood at 3.38 ± 1.75 h. Under setting [1], the tmax turned out to be 0.83 ± 0.52 h; the “Cmax, second value” stood at 6.32 ± 3.38 ng/mL; the “tmax, second value” is 1.75 ± 1.02 h. For the same compound, under setting [2], the AUC0-t amounted to 32.79 ± 15.58 ng·h/mL, the “AUC0-∞” value was 34.59 ± 14.83 ng·h/mL, the Cmax came out at 8.53 ± 4.68 ng/mL and the t1/2 turned out to be 2.98 ± 1.07 h. Further, under setting [2], the tmax was 0.71 ± 0.40 h. Also, under “oral RB-RPA mixed extracts”, the “Cmax, second value” is 8.42 ± 4.54 ng/mL and the “tmax, second value” came out at 1.86 ± 0.92 h.

As to `C[C@H]1O[C@@H](O[C@H]2CC[C@@]3(C)[C@@H](CC[C@]4(C)[C@@H]3C=C[C@]35OC[C@@]6(CCC(C)(C)C[C@H]63)[C@@H](O)C[C@]54C)[C@]2(C)CO)[C@H](O)[C@@H](O)[C@H]1O` [Prosaikogenin F], under setting [1], the AUC0-t amounted to 54.21 ± 25.01 ng·h/mL, the “AUC0-∞” value stood at 57.97 ± 25.49 ng·h/mL, the Cmax stood at 14.68 ± 6.91 ng/mL and the t1/2 was 2.91 ± 0.84 h. Under setting [1], this compound returned a tmax of 1.54 ± 0.78 h. Also, under setting [2], the AUC0-t was found to be 71.62 ± 34.91 ng·h/mL, the “AUC0-∞” value amounted to 77.58 ± 36.46 ng·h/mL, the Cmax was determined as 18.36 ± 8.50 ng/mL and the t1/2 was 3.46 ± 0.55 h. For the same compound, the tmax under setting [2] was 1.62 ± 0.74 h.
